Where a SMILES comes first, the peptide text is derived from it.
What was measured:
[1] = pH 7.4
Method: Dry peptides were dissolved into 10 mM PBS buffer at pH 7.4 at different initial concentrations, and were incubated for 7 days at 25° C. without stirring. Each sample was then centrifuged using a Beckman Coulter Microfuge 22R Centrifuge at 24° C. for 20 min. The relative centrifugal force used was 1.75×10^4 g. Solubility of each sample was approximated by measuring the absorbance of the corresponding supernatant at 280 nm measured using a Beckman Coulter DU 730 UV/Vis Spectrophotometer.
Each peptide tested was incubated in 10 mM PBS buffer at pH 7.4 for 7 days at three different concentrations (100 μM, 500 μM and 1 mM) and the solution was then centrifuged. The apparent solubility was represented by the absorbance of the supernatant of each sample measured at 280 nm. The extinction coefficients of all polypeptides are very similar at 280 nm since they all contain the same aromatic residues and each contains a disulfide bond. […] A peptide which is soluble at 1 mM and above will show a linear dependence of absorbance on initial concentration. A peptide which is less soluble will deviate from linearity. The peptides were centrifuged after 7 days and their apparent solubility measured by measuring the absorbance at 280 nm of the supernatant of each solution. The apparent concentration refers to the concentration which would be obtained if all of the peptide dissolved. The absorbance of the supernatant is directly proportion to the amount of peptide in solution.

[2] = molecular target: T1, human calcitonin receptor (hCT(a)) (Homo sapiens, UniProt P30988); test: cAMP production (LANCE cAMP assay) in transfected Cos-7 cells; assay type: cell-based; conditions: cAMP production, Cos-7 cells expressing hCT(a); mean ± spread; read-out: Human calcitonin receptor binding data pEC50 (converted)
T1 construct: expressed in transfected cells; host or cells: Cos-7 cells, transient transfection with PEI, pcDNA3.1 vectors
T1 sequence (P30988 25-474): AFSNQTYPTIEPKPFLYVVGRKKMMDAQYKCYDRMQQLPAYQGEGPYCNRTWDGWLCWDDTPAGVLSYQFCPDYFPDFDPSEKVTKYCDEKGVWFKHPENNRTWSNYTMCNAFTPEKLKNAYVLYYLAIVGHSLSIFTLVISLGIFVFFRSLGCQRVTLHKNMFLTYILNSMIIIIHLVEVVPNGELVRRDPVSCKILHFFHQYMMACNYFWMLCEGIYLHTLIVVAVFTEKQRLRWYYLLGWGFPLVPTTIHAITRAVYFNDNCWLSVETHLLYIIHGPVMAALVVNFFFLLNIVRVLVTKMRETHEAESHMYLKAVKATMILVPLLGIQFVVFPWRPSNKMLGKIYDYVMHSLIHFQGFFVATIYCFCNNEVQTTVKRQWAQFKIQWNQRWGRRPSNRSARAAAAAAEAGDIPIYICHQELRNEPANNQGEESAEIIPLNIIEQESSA
Method: (§1) Cell Culture and Transfection. Cos-7 cells were cultured and transfected for receptor activity assays as previously described in Bailey, R. J., and Hay, D. L. Peptides (2006) 27, pp. 1367-1375, the entire contents of which is incorporated herein by reference. Specifically, cells were cultured in Dulbucco's modified eagle medium (DMEM) with 8% heat-inactivated fetal bovine serum (FBS) and kept in a 37° C. humidified 95% air/5% CO2 incubator. Cells were plated at a density of 18,000-20,000 cells/well (depending on cell passage) in 96-well culture plate and returned to the incubator for approximately 18-24 hours. Transient transfections were carried out using polyethyleneimine (PEI) as described previously and maintained at 37° C. in a humidified 95% air/5% CO2 incubator for 36-48 hours. All DNA constructs used in this these were in pcDNA3.1 vectors.
(§2) cAMP Assay: Measurement of intracellular cAMP was achieved using a time-resolved fluorescent resonance energy transfer assay (LANCE cAMP assay, PerkinElmer), similar to the previously described Alphascreen assay as described in Gingell, J. J., et al. Peptides (2010) 31, pp. 1400-1404, with the following changes. Following stimulation with peptide agonist, cAMP assay media from the wells was thoroughly aspirated and 50 μl of ice-cold absolute ethanol added to each well. Plates were then placed in a −30° C. freezer for 10 minutes or overnight prior to assay, then removed and allowed to air dry in a fume hood for 1-2 hours. After ethanol evaporated from the plates, 50 μl of LANCE detection buffer (lysis buffer, 0.35% Triton X-100, 50 mM HEPES and 10 mM calcium chloride in ddH2O, pH 7.4) was added per well and left on a plate shaker for 10-15 minutes at room temperature. Meanwhile, a cAMP standard curve was generated using LANCE detection buffer and a serially diluted cAMP standard (50 μM) ranging from 1 μM to 10 pM. The serially diluted cAMP standards (5 μl) and cell lysates (5 μl) were transferred into 384-well opti-plates and sealed with a Sealplate®-A-384-well microplate adhesive film and briefly centrifuged (10 seconds, 500 rpm, 23° C.). A 1:200 dilution of LANCE assay Alexa Fluor® 647 anti-cAMP antibody was prepared in detection buffer and 5 μl added to each well. Plates were sealed and briefly centrifuged again (10 seconds, 500 rpm, 23° C.) and left to incubate, sealed for 30 minutes at room temperature. During this incubation, detection mix was made up consisting of detection buffer, Europium-W8044 labelled streptavidin (1:4500) and biotin-cAMP (1:1500). After 30 minutes incubation, 10 μl of detection mix was added to each well, plates were centrifuged (30 seconds, 500 rpm, 23° C.), sealed and left to incubate for 1 hour at room temperature. Plates were read after an overnight incubation on an Envision plate reader. A standard curve was included in each experiment to ensure accurate quantification of cAMP.
(§3) Data Analysis for Receptor Assays: Data were derived from independent experiments for statistical analysis and all experiments were performed and replicated. Quantification of cAMP was obtained from a standard curve included in each experiment and plotted using the software GraphPad Prism 6.0 (GraphPad Software Inc, San Diego, Calif., USA) with a non-linear regression 3-parameter logistic equation with a Hill Slope of 1 to determine the pEC50. The pEC50 values from the fits were combined from different experimental days and statistically tested for difference from the WT peptide using the Student's t-test with statistical significance defined as * p<0.05, ** p<0.01, *** p<0.001. Due to variability in amount of cAMP produced between experimental days, data were normalized to the control peptide for each experiment to obtain Emax values. For each analogue, data were normalized to the maximum (Emax) and minimum (Emin) responses of h-amylin. […]

[3] = molecular target: T2, human amylin receptor (hAMY1(a)) (Homo sapiens, UniProt O60894+P30988); test: as above; assay type: cell-based; conditions: cAMP production, Cos-7 cells expressing hAMY1(a); mean ± spread; read-out: Human Amylin1(a) receptor binding data pEC50 (converted)
T2 construct: expressed in transfected cells; host or cells: Cos-7 cells, transient transfection with PEI, pcDNA3.1 vectors
T2 sequence (O60894 27-148 partner, one chain of several): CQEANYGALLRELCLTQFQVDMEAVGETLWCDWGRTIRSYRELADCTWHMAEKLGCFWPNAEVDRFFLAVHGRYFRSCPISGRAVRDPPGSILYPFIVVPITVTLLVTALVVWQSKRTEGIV
Method: as §1, §2, §3

[4] = pH 7
Method: 100 μL each solution was obtained immediately following dissolution with Novolin-N® and was centrifuged using a Beckman Coulter Microfuge (22R Centrifuge) at 24° C. for 20 minutes. The relative centrifugal force used was 1.75×104 g. Aliquots of each sample were immediately frozen and lyophilized. The remaining portion of each sample was not centrifuged and were incubated at 25° C. without stirring. Samples were collected again following the same procedures after 1 day, 7 days and 30 days. Dry samples were redissolved in 4:1 HPLC buffer mix (4A:1B, below) and immediately injected for liquid chromatography-mass spectroscopy (LC-MS) measurements. The HPLC buffers were (A) H2O (0.1% acetic acid and 0.02% TFA) and (B) CH3CN (0.1% acetic acid and 0.02% TFA). Solubility of each co-formulated sample was determined by measuring the absorbance from the liquid chromatogram traces at 215±8 nm and at 277±8 nm at each time point tested. points (0 hours, 24 hours, 7 days and 30 days post-formulation).

[5] = Transmission electron microscopy (TEM) of amyloid aggregates; assay type: physicochemical; conditions: after 7 days of incubation, end of kinetic experiment
Method: Transmission Electron Microscopy (TEM). TEM images were recorded using an FEI Bio TwinG^2 Transmission Electron Microscope at the central microscopy center at Stony Brook University. 15 μL aliquots of the samples used for fluorescence assays were removed at the end of each kinetic experiment, blotted on a carbon formvar-coated 300-mesh copper grid for 1 min and then negatively stained with saturated uranyl acetate for 1 min. Images were taken at a 68,000× magnification and 100 nm under focus. Mutant-hIAPP polypeptides of the present disclosure were further analyzed using TEM. […] In contrast, no amyloid fibrils were formed after a 1 week (FIGS. 3B-E, left) or 6 week (FIGS. 3B-E, right) culture with the any of the mutant-hIAPP analogs tested.

[6] = Thioflavin-T fluorescence assay of amyloid formation kinetics; assay type: physicochemical; conditions: 16 μM peptide, 10 mM PBS pH 7.4, 25° C., no stirring; 1 week and 6 week incubations
Method: Sample Preparation. Each peptide was dissolved into 100% hexafluoroisoproponal (HFIP) to make a 0.5 mM stock solution. Stock solutions were filtered using […] Acrodisc syringe filter with a GHP membrane and the required amount of peptide was lyophilized overnight to remove HFIP. Dry peptide was dissolved into the appropriate buffer for the fluorescence assays. Fluorescence Assays. Thioflavin-T binding assays, conducted without HFIP or stirring at 25° C., were utilized to monitor amyloid formation kinetics. Fluorescence measurements were performed using a Spectramax Gemini EM plate reader. Corning 96-well non-binding surface black plates with lids were used and were sealed with polyethylene sealing tape. Samples were prepared by dissolving dry peptide into 10 mM PBS buffer (pH 7.4) and 32 μM thioflavin-T solution immediately before the measurement. Thioflavin-T fluorescence was measured with 450 nm excitation and emission at 485 nm was monitored. The final concentrations were 16 μM peptides. After creating the mutant-hIAPP polypeptides of the present disclosure, applicants tested the propensity of the different analogs to form amyloid at pH 7.4 using thioflavin-T fluorescence assays (FIGS. 2A-D) and TEM (FIGS. 3A-E). […] Amyloid formation follows a sigmoidal time course consisting of a lag phase in which few, if any, fibrils are formed, followed by a growth phase and a saturation phase in which amyloid fibrils are in equilibrium with soluble peptide.

EC50 [2]: 2.4 nM
EC50 [3]: 0.741 nM
amyloid aggregates in TEM images [5]: no aggregates are observed
SMILES: CC[C@H](C)[C@H](NC(=O)[C@H](C)NC(=O)CNC(=O)[C@H](Cc1ccccc1)NC(=O)[C@H](CC(N)=O)NC(=O)[C@H](CCCCN)NC(=O)[C@H](CO)NC(=O)[C@H](CO)NC(=O)[C@H](Cc1c[nH]cn1)NC(=O)[C@@H](NC(=O)[C@H](CC(C)C)NC(=O)[C@H](Cc1ccccc1)NC(=O)[C@H](CC(N)=O)NC(=O)[C@H](C)NC(=O)[C@H](CC(C)C)NC(=O)[C@H](CCCNC(=N)N)NC(=O)[C@H](CCC(N)=O)NC(=O)[C@@H](NC(=O)[C@H](C)NC(=O)[C@@H]1CSSC[C@H](NC(=O)[C@@H](N)CCCCN)C(=O)N[C@@H](CC(N)=O)C(=O)N[C@@H]([C@@H](C)O)C(=O)N[C@@H](C)C(=O)N[C@@H]([C@@H](C)O)C(=O)N1)[C@@H](C)O)C(C)C)C(=O)N[C@@H](CC(C)C)C(=O)N[C@@H](CO)C(=O)N[C@@H](CO)C(=O)N[C@H](C(=O)N[C@@H](CC(N)=O)C(=O)N[C@H](C(=O)NCC(=O)N[C@@H](CO)C(=O)N[C@@H](CCCCN)C(=O)N[C@H](C(=O)N[C@@H](Cc1ccc(O)cc1)C(N)=O)[C@@H](C)O)C(C)C)[C@@H](C)O [SEQ ID NO: 7] (HELM PEPTIDE1{K.C.N.T.A.T.C.A.T.Q.R.L.A.N.F.L.V.H.S.S.K.N.F.G.A.I.L.S.S.T.N.V.G.S.K.T.Y.[am]}$PEPTIDE1,PEPTIDE1,2:R3-7:R3$$$V2.0)
solubility at neutral pH (absorbance of supernatant at 280 nm) [1]: more substantially soluble than wild-type hIAPP
solubility co-formulated with Novolin-N (absorbance at 215 nm and 277 nm, LC-MS) [4]: significantly higher absorbance when compared to both wild-type hIAPP and paramlintide
amyloid formation monitored by thioflavin-T fluorescence [6]: none of the mutant hIAPP polypeptides forms amyloid
